From patent publication US5001240A, “Process for preparing optically active hydantoins” (Sanwa Kagaku Kenkyyusho Co., Ltd., priority 1986, dated 1991) come the findings set out here.

Molecules are shown by their SMILES. Like-named read-outs stand apart in the source and are kept apart here.

One experiment deals with T1, aldose reductase (Rattus norvegicus, UniProt P07943).
T1 construct: water soluble extracts of rat lenses; from tissue; host or cells: rat lens (water-soluble extract)
The experiment is described as follows: Inhibition of aldose reductase enzyme activity (Kador and Sharpless method, water soluble extracts of rat lenses). Format: biochemical. The following applies: for IC50: rat lens extract; for inhibition at 0.02 µM: 2.0 × 10^-8 M.

Experiment [1] relates to polyol increase in the sciatic nerve of galactosemic rats. Description: Reduction or inhibition of polyol (galactitol) increase in the sciatic nerve of galactosemic rats. It counts as in vivo, rat. The note with it: for ED50: once a day for eight days, 30% galactose diet, sciatic nerve galactitol. As for the experimental part:
The compounds according to the invention were tested for their ability to reduce or inhibit polyol increase in the sciatic nerve of galactosemic rats. Rats were fed 30% galactose diet and were administered the compounds at the various doses of 0.4-50 mg/kg once a day for eight days. One day after the final administration (on 9th day), sciatic nerves were removed for galactitol determination. […] The selected control compounds are typical one described in the aforesaid Japanese Unexamined Patent Application Gazette.

Setting [2] is: Rattus norvegicus, 192 h, Table 3, read-out: ED50.
Setting [3] is: Table 1, 3.3 × 10^-8 M, read-out: Inhibition (%).
[4] abbreviates: Table 1, 10^-7 M, read-out: Inhibition (%).
The mark [5] stands for this setting: Rattus norvegicus, 192 h, Table 4, read-out: ED50.
Where [6] appears, read: Table 2, 3.3 × 10^-8 M, read-out: Inhibition (%).
Setting [7] is: Table 2, 10^-7 M, read-out: Inhibition (%).
The mark [8] stands for this setting: Table 2, 10^-8 M, read-out: Inhibition (%).
Where [9] appears, read: Table 1, 10^-5 M, read-out: Inhibition (%).

On aldose reductase, `NC(=O)C1CC2(NC(=O)NC2=O)c2cc(F)ccc2O1` (racemic) [A, dl-6-Fluoro-2,3-dihydro-2',5'-dioxo-spiro[4H-1-benzopyran-4,4'-imidazolidine]-2-carboxamide] returned an inhibition at 0.01 µM of 21%, an inhibition at 0.033 µM of 51% and an inhibition at 0.1 µM of 80%. Besides, in experiment [1] (setting [2]), the ED50 was 3.3 mg/kg.
In turn, `O=C1NC(=O)C2(CC(CCl)Oc3ccc(F)cc32)N1` (racemic) [D, dl-2-Chloromethyl-6-fluoro-2,3-dihydro-spiro[4H-1-benzopyran-4,4'-imidazolidine]-2',5'-dione] came in with an inhibition at 0.33 µM against aldose reductase (Table 1, 3.3 × 10^-7 M) of 78%. Also, the inhibition at 0.033 µM on aldose reductase (setting [3]) was 28%. Moreover, the inhibition at 0.1 µM at aldose reductase (setting [4]) turned out to be 53%. Besides, the concentration for half-maximal inhibition (IC50) against aldose reductase (Table 1) was determined as 90 nM. Moreover, the ED50 in experiment [1] (setting [5]) is 1.3 mg/kg.
As for `O=C1NC(=O)C2(CC(C(=O)O)Oc3ccc(F)cc32)N1` (racemic) [Example 1, dl-6-fluoro-2,3-dihydro-2',5'-dioxo-spiro[4H-1-benzopyran-4,4'-imidazolidine]-2-carboxylic acid], the “potency of the major diastereomer vs minor diastereomer in inhibition of polyol increase” value in experiment [1] (sciatic nerve of galactosemic rats) was “higher than that of the minor diastereomer”.
Regarding `O=C1NC(=O)C2(CC(CBr)Oc3ccc(F)cc32)N1` (racemic) [G, dl-2-Bromomethyl-6-fluoro-2,3-dihydro-spiro[4H-1-benzopyran-4,4'-imidazolidine]-2',5'-dione], the inhibition at 0.33 µM on aldose reductase (Table 1, 3.3 × 10^-7 M) was found to be 70%. In addition, the inhibition at 0.033 µM on aldose reductase (setting [3]) amounted to 22%. At aldose reductase (setting [4]), the inhibition at 0.1 µM was 42%. Moreover, half-maximal inhibition on aldose reductase (Table 1) (IC50) required 130 nM. For the same compound, the ED50 in experiment [1] (setting [5]) came out at 7.2 mg/kg.
Turning to `NC(=O)C1CC2(NC(=O)NC2=O)c2cc(F)cc([N+](=O)[O-])c2O1` (racemic) [L, dl-6-Fluoro-2,3-dihydro-8-nitro-2',5'-dioxo-spiro[4H-1-benzopyran-4,4'-imidazolidine]-2-carboxamide], at aldose reductase (setting [6]), the inhibition at 0.033 µM was determined as 50%. Further, the inhibition at 0.1 µM on aldose reductase (setting [7]) worked out at 88%. Also, at aldose reductase (setting [8]), the inhibition at 0.01 µM turned out to be 15%. In addition, the half-maximal inhibitory concentration (IC50) at aldose reductase (Table 2) was determined as 31 nM.
`NC(=O)C1CC2(NC(=O)NC2=O)c2cc(F)cc(N)c2O1` (racemic) [M, dl-8-Amino-6-fluoro-2,3-dihydro-2',5'-dioxo-spiro[4H-1-benzopyran-4,4'-imidazolidine]-2-carboxamide]: at aldose reductase (setting [6]), the inhibition at 0.033 µM worked out at 40%. Further, at aldose reductase (setting [7]), the inhibition at 0.1 µM worked out at 74%. Moreover, on aldose reductase (setting [8]), the inhibition at 0.01 µM came out at 13%. For the same compound, on aldose reductase (Table 2), inhibition was half-maximal at 44 nM (IC50).
`O=C1NC(=O)C2(CC(CCl)Oc3c([N+](=O)[O-])cc(F)cc32)N1` (racemic) [N, dl-2-Chloromethyl-6-fluoro-2,3-dihydro-8-nitro-spiro[4H-1-benzopyran-4,4'-imidazolidine]-2',5'-dione] showed an inhibition at 0.33 µM against aldose reductase (Table 2, 3.3 × 10^-7 M) of 81%. Besides, the inhibition at 0.033 µM on aldose reductase (setting [6]) was determined as 30%. The inhibition at 0.1 µM at aldose reductase (setting [7]) amounted to 59%. Besides, the half-inhibitory concentration (IC50) at aldose reductase (Table 2) came out at 76 nM.
The compound `Nc1cc(F)cc2c1OC(CCl)CC21NC(=O)NC1=O` (racemic) [O, dl-8-Amino-2-chloromethyl-6-fluoro-2,3-dihydro-spiro[4H-1-benzopyran-4,4'-imidazolidine]-2',5'-dione] had an inhibition at 0.33 µM on aldose reductase (Table 2, 3.3 × 10^-7 M) of 68%. 1 µM produced 85% inhibition at aldose reductase (Table 2, 10^-6 M). At aldose reductase (setting [7]), the inhibition at 0.1 µM was 38%. This compound also returned a half-maximal inhibitory concentration (IC50) against aldose reductase (Table 2) of 170 nM.
At aldose reductase, `NC(=O)[C@H]1CC2(NC(=O)NC2=O)c2cc(F)ccc2O1` (stereo partly drawn) [B, d-6-Fluoro-2,3-dihydro-2',5'-dioxo-spiro[4H-1-benzopyran-4,4'-imidazolidine]-2-carboxamide] yielded an inhibition at 0.01 µM of 39%, an inhibition at 0.033 µM of 80% and an inhibition at 0.1 µM of 93%. Besides, the ED50 in experiment [1] (setting [2]) amounted to 1.3 mg/kg.
On aldose reductase, `NC(=O)C1CC2(NC(=O)NC2=O)c2cc(F)ccc2O1` (stereo not drawn) [C, 1-6-Fluoro-2,3-dihydro-2',5'-dioxo-spiro[4H-1-benzopyran-4,4'-imidazolidine]-2-carboxamide] returned an inhibition at 10 µM of 27%.
Regarding `O=C1NC(=O)C2(CC(CCl)Oc3ccc(F)cc32)N1` (stereo not drawn) [Compound E, d-2-Chloromethyl-6-fluoro-2,3-dihydro-spiro[4H-1-benzopyran-4,4'-imidazolidine]-2',5'-dione], at aldose reductase (setting [3]), the inhibition at 0.033 µM came to 38%. Further, the inhibition at 0.1 µM on aldose reductase (setting [4]) was found to be 66%. In addition, the inhibition at 0.01 µM at aldose reductase (Table 1, 10^-8 M, read-out: Inhibition (%)) is 21%. This compound gave an IC50 on aldose reductase (Table 1) of 47 nM. The ED50 in experiment [1] (setting [5]) was 0.6 mg/kg.
For the compound `O=C1NC(=O)C2(CC(CCl)Oc3ccc(F)cc32)N1` (stereo not drawn) [F, 1-2-Chloromethyl-6-fluoro-2,3-dihydro-spiro[4H-1-benzopyran-4,4'-imidazolidine]-2',5'-dione], testing at 3.3 µM at aldose reductase (Table 1, 3.3 × 10^-6) gave an inhibition of 52%. Moreover, the inhibition at 10 µM at aldose reductase (setting [9]) came out at 74%. The compound also had an inhibition at 1 µM at aldose reductase (Table 1, 10^-6 M) of 28%. Besides, the IC50 against aldose reductase (Table 1) came out at 2900 nM.
On to `O=C1NC(=O)C2(CC(CBr)Oc3ccc(F)cc32)N1` (stereo not drawn) [H, d-2-Bromomethyl-6-fluoro-2,3-dihydro-spiro[4H-1-benzopyran-4,4'-imidazolidine]-2',5'-dione], for which the inhibition at 0.33 µM on aldose reductase (Table 1, 3.3 × 10^-7 M) is 82%. Moreover, the inhibition at 0.033 µM on aldose reductase (setting [3]) was 35%. The inhibition at 0.1 µM on aldose reductase (setting [4]) is 59%. In addition, at aldose reductase (Table 1), it took 68 nM to reach half-maximal inhibition (IC50). Besides, the ED50 in experiment [1] (setting [5]) is 2.2 mg/kg.
As for `O=C1NC(=O)C2(CC(CBr)Oc3ccc(F)cc32)N1` (stereo not drawn) [I, 1-2-Bromomethyl-6-fluoro-2,3-dihydro-spiro[4H-1-benzopyran-4,4'-imidazolidine]-2',5'-dione], testing at 3.3 µM against aldose reductase (Table 1, 3.3 × 10^-6) gave an inhibition of 54%. The inhibition at 10 µM on aldose reductase (setting [9]) was 75%. This compound showed an inhibition at 1 µM against aldose reductase (Table 1, 10^-6 M) of 31%. At aldose reductase (Table 1), this compound returned an IC50 of 2700 nM.
At aldose reductase (Table 2), `NC(=O)[C@H]1CC2(NC(=O)NC2=O)c2cc(F)cc([N+](=O)[O-])c2O1` (stereo partly drawn) [J, d-6-Fluoro-2,3-dihydro-8-nitro-2',5'-dioxo-spiro[4H-1-benzopyran-4,4'-imidazolidine]-2-carboxamide] registered an inhibition at 0.02 µM of 69% and an IC50 of 14 nM. For the same compound, the inhibition at 0.033 µM at aldose reductase (setting [6]) is 82%. Besides, on aldose reductase (setting [8]), the inhibition at 0.01 µM turned out to be 35%.
Turning to `NC(=O)[C@H]1CC2(NC(=O)NC2=O)c2cc(F)cc(N)c2O1` (stereo partly drawn) [K, d-8-Amino-6-fluoro-2,3-dihydro-2',5'-dioxo-spiro[4H-1-benzopyran-4,4'-imidazolidine]-2-carboxamide], the inhibition at 0.033 µM on aldose reductase (setting [6]) amounted to 60%. Moreover, at aldose reductase (setting [7]), the inhibition at 0.1 µM worked out at 70%. For the same compound, the inhibition at 0.01 µM at aldose reductase (setting [8]) came to 27%. Further, 25 nM corresponded to half-maximal inhibition against aldose reductase (Table 2) (IC50).
On aldose reductase (Table 2), `CC(=O)Nc1cc(F)cc2c1O[C@@H](C(N)=O)CC21NC(=O)NC1=O` (stereo partly drawn) [P, d-8-Acetamido-6-fluoro-2,3-dihydro-2',5'-dioxo-spiro[4H-1-benzopyran-4,4'-imidazolidine]-2-carboxamide] gave an inhibition at 0.02 µM of 56% and a half-maximal inhibitory concentration (IC50) of 18 nM. Further, at aldose reductase (setting [6]), the inhibition at 0.033 µM came to 69%. Also, the inhibition at 0.01 µM on aldose reductase (setting [8]) was found to be 30%.
`O=C1NC(=O)C2(CCOc3ccc(F)cc32)N1` (stereo not drawn) [Q, d1-6-Fluoro-2,3-dihydro-spiro[4H-1-benzopyran-4,4'-imidazolidine]-2',5'-dione, reference compound] yielded an inhibition at 3.3 µM against aldose reductase (Table 1, 3.3 × 10^-6) of 85%. On aldose reductase (Table 1, 3.3 × 10^-7 M), this compound showed an inhibition at 0.33 µM of 46%. For the same compound, the inhibition at 0.033 µM on aldose reductase (setting [3]) is 10%. At aldose reductase (Table 1, 10^-6 M), this compound displayed an inhibition at 1 µM of 71%. Moreover, at aldose reductase (setting [4]), the inhibition at 0.1 µM was 17%. Besides, the values for the ED50 in experiment [1] (setting [5]) and in experiment [1] (Table 3) were 31.5 mg/kg and 36.6 mg/kg, respectively.
`O=C1NC(=O)C2(CCOc3ccc(F)cc32)N1` (stereo not drawn) [R, d-6-Fluoro-2,3-dihydro-spiro[4H-1-benzopyran-4,4'-imidazolidine]-2',5'-dione, reference compound]: the “Inhibition (%)” value on aldose reductase (Table 1, 3.3 × 10^-6) was 88%; on aldose reductase (Table 1, 3.3 × 10^-7 M) it was 61%; at aldose reductase (Table 1, 3.3 × 10^-8 M), 15%; at aldose reductase (Table 1, 10^-6 M), 80%; on aldose reductase (Table 1, 10^-7 M) it was 34%. For the same compound, the inhibition at 0.33 µM against aldose reductase (Table 2, 3.3 × 10^-7 M) is 59%. Further, the inhibition at 0.033 µM on aldose reductase (setting [6]) is 24%. This compound displayed an inhibition at 1 µM against aldose reductase (Table 2, 10^-6 M) of 76%. The inhibition at 0.1 µM on aldose reductase (setting [7]) turned out to be 29%. In experiment [1] (Table 3), this compound came in with an ED50 of 18.0 mg/kg.
Turning to `O=C1NC(=O)C2(CCOc3ccc(F)cc32)N1` (stereo not drawn) [S, 1-6-Fluoro-2,3-dihydro-spiro[4H-1-benzopyran-4,4'-imidazolidine]-2',5'-dione, reference compound], the inhibition at 10 µM at aldose reductase (setting [9]) was determined as 32%.

A word on the inhibition: it is the drop in the measured response relative to a control, in per cent. What is called IC50 is the midpoint of a concentration-inhibition curve. A lower IC50 goes with higher potency.
